From patent US8519149B2, “Tricyclic compounds as mPGES-1 inhibitors” (Glenmark Pharmaceuticals S.A., priority 2010, dated 2013)
pIC50: −log10 of the molar value.

Biological target: T1, Recombinant human mPGES-1 (Homo sapiens, UniProt O14684)
T1 sequence (O14684 1-152): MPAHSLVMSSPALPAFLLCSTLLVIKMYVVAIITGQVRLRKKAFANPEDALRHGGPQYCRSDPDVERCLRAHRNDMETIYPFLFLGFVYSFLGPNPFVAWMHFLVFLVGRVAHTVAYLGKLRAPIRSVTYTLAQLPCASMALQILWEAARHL
Test: In-vitro mPGES-1 enzyme inhibition assay (PGE2 formation from PGH2, HTRF detection)
Assay type: biochemical
Conditions: for inhibition at 1 µM: 1 μM test compound, read-out: Percentage inhibition at 1 μM; for inhibition at 1 µM / inhibition at 10 µM: recombinant human mPGES-1 microsomal fraction; for inhibition at 10 µM: 10 μM test compound, read-out: Percentage inhibition at 10 μM; for pIC50: class symbols, selected examples
How it was run: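 Crude microsomal fractions containing recombinant human mPGES-1 (40-60 μg/mL protein) convert PGH2 to PGE2 in the presence of reduced glutathione, with 0.5% final DMSO. Reaction stopped with stannous chloride, and PGE2 measured by anti-PGE2 antibody (HTRF) detection. IC50 by nonlinear regression of % inhibition versus uninhibited enzyme control.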

SMILES	inhibition at 1 µM	inhibition at 10 µM	pIC50
CC1(C)Cc2c(c(C(=O)NC3CCC(F)(F)CC3)cc3nc(Nc4c(Cl)cccc4Cl)[nH]c23)O1 [Example-93, 2-[(2,6-Dichlorophenyl)amino]-N-(4,4-difluorocyclohexyl)-7,7-dimethyl-7,8-dihydro-1H-furo[3,2-e]benzimidazole-5-carboxamide]	83.1%	80.9%	
Cc1cccc(Cl)c1Nc1nc2cc(C(=O)NC3(c4cccc(C(F)(F)F)c4)CC3)c3c(c2[nH]1)CC(C)(C)O3 [Example-132, 2-((2-Chloro-6-methylphenyl)amino)-7,7-dimethyl-N-(1-(3-(trifluoromethyl)phenyl)cyclopropyl)-7,8-dihydro-1H-benzofuro[4,5-d]imidazole-5-carboxamide]	92.4%	98%	> 7.30
CCCCCCNC(=O)c1cc2nc(Nc3c(Cl)cccc3Cl)[nH]c2c2nc(C)oc12 [Example-181, 7-[(2,6-Dichlorophenyl)amino]-N-hexyl-2-methyl-8H-imidazo[4,5-e][1,3]benzoxazole-4-carboxamide]	89.5%	93.9%	> 7.30
COCCn1c(Nc2c(Cl)cccc2Cl)nc2cc(C(=O)Nc3ccccc3C(F)(F)F)c3c(c21)CC(C)(C)O3 [Example-100, 2-[(2,6-Dichlorophenyl)amino]-1-(2-methoxyethyl)-7,7-dimethyl-N-[2-(trifluoromethyl)phenyl]-7,8-dihydro-1H-furo[3,2-e]benzimidazole-5-carboxamide]	96.6%	95.6%	> 7.30
Cc1cccc(Cl)c1Nc1nc2cc(C(=O)Nc3ccc(C(F)(F)F)cn3)c3c(c2[nH]1)CC(C)(C)O3 [Example-124, 2-[(2-Chloro-6-methylphenyl)amino]-7,7-dimethyl-N-[5-(trifluoromethyl)pyridin-2-yl]-7,8-dihydro-1H-furo[3,2-e]benzimidazole-5-carboxamide]	97.1%	100%	> 7.30

Next, values leading:

inhibition at 1 µM	inhibition at 10 µM	pIC50	SMILES
98%	100%	> 7.30	Cc1cccc(Cl)c1Nc1nc2cc(C(=O)Nc3ncc(Cl)cc3F)c3c(c2[nH]1)CC(C)(C)O3 [Example-204, N-(5-Chloro-3-fluoropyridin-2-yl)-2-((2-chloro-6-methylphenyl)amino)-7,7-dimethyl-7,8-dihydro-1H-benzofuro[4,5-d]imidazole-5-carboxamide]
97.1%	96.5%	> 7.30	Cc1cccc(Cl)c1Nc1nc2cc(C(=O)Nc3cc(F)c(F)cc3F)c3c(c2[nH]1)CC(C)(C)O3 [Example-192, 2-((2-Chloro-6-methylphenyl)amino)-7,7-dimethyl-N-(2,4,5-trifluorophenyl)-7,8-dihydro-1H-benzofuro[4,5-d]imidazole-5-carboxamide]
95.5%	98.7%	> 7.30	Cc1cc2c(o1)c(C(=O)NC(C)(C)CC(C)(C)C)cc1nc(Nc3c(Cl)cncc3Cl)[nH]c12 [Example-34, 2-[(3,5-Dichloropyridin-4-yl)amino]-7-methyl-N-(2,4,4-trimethylpentan-2-yl)-1H-furo[3,2-e]benzimidazole-5-carboxamide]
90.2%	97.8%	> 7.30	CC1(C)Cc2c(c(C(=O)NCc3ccc(F)cc3)cc3nc(Nc4c(Cl)cncc4Cl)[nH]c23)O1 [Example-26, 2-[(3,5-Dichloropyridin-4-yl)amino]-N-(4-fluorobenzyl)-7,7-dimethyl-7,8-dihydro-1H-furo[3,2-e]benzimidazole-5-carboxamide]
93.8%	98.8%	7.00 to 7.30	Cc1cccc(Cl)c1Nc1nc2cc(C(=O)Nc3c(F)cc(F)cc3F)c3c(c2[nH]1)CC(C)(C)O3 [Example-109, 2-[(2-Chloro-6-methylphenyl)amino]-7,7-dimethyl-N-(2,4,6-trifluorophenyl)-7,8-dihydro-1H-furo[3,2-e]benzimidazole-5-carboxamide]
